Laboratory results: patent US20130303518A1, “Methods of Inhibiting the Catalytic Activity of a Protein Kinase and of Treating a Protein Kinase Related Disorder” (JIANGSU HANSOH PHARMACEUTICAL CO., LTD., priority 2007, published 2013)

How the values were obtained:
[1] = test system: SK—BR-3 (human breast cancer cells); assay: Inhibition of cancer cell proliferation assay (SRB); format: cell-based; details: SK-BR-3, 72 h, read-out: IC50 SK-BR-3
Excerpt: (§1) The cancer cells include HUVEC (human umbilical vein endothelial cells), HT-29 (human colon cancer cells), Mo7e (human megakaryoblastic leukemia cell line), A431 (human epidermoid carcinoma cells), NCI—H526 (small-cell lung cancer cells), and SK—BR-3 (human breast cancer cells).
(§2) The following in vitro assay is to determine the activity of the tested compound for inhibiting the proliferation of the cancer cells mentioned above. The activity is represented by the IC50 value. The general procedures of the assay are given as follows: Cancer cells mentioned above were chosen and seeded to 96-well cell culture plate at a suitable concentration (e.g., 5000 cells/mL medium). […] Then, the cell culture medium was replaced by fresh one with tested compound added in it at serial concentrations (general 6 to 7 concentrations). Then the cells were put back to the incubator and cultured continuously. 72 hours later, the activity of the tested compound for inhibiting the cell proliferation was determined by using Sulforhodamine B (SRB) method. IC50 value on tested cells is calculated by the data of inhibition rates of serial concentrations of the tested compound.

[2] = test system: A431 (human epidermoid carcinoma cells); assay: as above; format: cell-based; details: A-431, 72 h, read-out: IC50 A431
Excerpt: as §1, §2

[3] = test system: NCI—H526 (small-cell lung cancer cells); assay: as above; format: cell-based; details: Homo sapiens, NCI-H526, 72 h, read-out: IC50 NCI-H526
Excerpt: as §1, §2

Flt1 = target: T1, Flt1 (Homo sapiens, UniProt P17948); assay: Inhibition of receptor tyrosine kinases activity assay; format: biochemical
T1 construct: purchased invitrogen PV3666
T1 sequence (P17948 27-1338): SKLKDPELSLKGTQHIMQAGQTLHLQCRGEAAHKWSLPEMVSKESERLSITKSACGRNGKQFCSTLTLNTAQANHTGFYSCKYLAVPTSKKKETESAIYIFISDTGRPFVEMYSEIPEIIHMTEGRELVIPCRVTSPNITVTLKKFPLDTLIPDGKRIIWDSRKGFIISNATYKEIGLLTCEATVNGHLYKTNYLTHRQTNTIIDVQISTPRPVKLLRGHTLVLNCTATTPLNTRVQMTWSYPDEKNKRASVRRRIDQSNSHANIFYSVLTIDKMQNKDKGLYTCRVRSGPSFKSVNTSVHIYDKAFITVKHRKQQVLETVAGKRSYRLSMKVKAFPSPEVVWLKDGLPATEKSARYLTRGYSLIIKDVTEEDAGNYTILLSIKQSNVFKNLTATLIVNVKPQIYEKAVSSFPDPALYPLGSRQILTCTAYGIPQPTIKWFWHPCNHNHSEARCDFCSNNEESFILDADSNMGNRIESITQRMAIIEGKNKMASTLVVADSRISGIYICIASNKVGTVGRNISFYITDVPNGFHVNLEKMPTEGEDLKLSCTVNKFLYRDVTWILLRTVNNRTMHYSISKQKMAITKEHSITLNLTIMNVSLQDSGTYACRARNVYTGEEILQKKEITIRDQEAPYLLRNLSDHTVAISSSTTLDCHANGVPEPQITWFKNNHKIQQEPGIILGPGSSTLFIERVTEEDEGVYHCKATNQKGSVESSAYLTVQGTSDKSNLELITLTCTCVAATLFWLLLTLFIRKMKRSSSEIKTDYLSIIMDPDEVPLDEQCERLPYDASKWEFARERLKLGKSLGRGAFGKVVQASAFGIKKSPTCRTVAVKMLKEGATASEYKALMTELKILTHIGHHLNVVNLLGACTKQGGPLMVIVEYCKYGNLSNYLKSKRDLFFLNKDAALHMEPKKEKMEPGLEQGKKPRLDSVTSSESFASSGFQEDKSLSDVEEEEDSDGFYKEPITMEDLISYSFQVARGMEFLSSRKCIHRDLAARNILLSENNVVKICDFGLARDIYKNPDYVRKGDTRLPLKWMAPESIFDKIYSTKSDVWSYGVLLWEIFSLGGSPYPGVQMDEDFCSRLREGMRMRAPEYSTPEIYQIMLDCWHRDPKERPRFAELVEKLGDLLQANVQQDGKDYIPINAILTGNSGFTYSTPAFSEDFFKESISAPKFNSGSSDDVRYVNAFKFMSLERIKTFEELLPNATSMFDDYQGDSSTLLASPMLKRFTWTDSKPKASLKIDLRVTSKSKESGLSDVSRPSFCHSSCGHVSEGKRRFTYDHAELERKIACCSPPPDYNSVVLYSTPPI

Ret = target: T2, Ret (Homo sapiens, UniProt P07949); assay: as above; format: biochemical
T2 construct: purchased invitrogen PV3819
T2 sequence (P07949 29-1114): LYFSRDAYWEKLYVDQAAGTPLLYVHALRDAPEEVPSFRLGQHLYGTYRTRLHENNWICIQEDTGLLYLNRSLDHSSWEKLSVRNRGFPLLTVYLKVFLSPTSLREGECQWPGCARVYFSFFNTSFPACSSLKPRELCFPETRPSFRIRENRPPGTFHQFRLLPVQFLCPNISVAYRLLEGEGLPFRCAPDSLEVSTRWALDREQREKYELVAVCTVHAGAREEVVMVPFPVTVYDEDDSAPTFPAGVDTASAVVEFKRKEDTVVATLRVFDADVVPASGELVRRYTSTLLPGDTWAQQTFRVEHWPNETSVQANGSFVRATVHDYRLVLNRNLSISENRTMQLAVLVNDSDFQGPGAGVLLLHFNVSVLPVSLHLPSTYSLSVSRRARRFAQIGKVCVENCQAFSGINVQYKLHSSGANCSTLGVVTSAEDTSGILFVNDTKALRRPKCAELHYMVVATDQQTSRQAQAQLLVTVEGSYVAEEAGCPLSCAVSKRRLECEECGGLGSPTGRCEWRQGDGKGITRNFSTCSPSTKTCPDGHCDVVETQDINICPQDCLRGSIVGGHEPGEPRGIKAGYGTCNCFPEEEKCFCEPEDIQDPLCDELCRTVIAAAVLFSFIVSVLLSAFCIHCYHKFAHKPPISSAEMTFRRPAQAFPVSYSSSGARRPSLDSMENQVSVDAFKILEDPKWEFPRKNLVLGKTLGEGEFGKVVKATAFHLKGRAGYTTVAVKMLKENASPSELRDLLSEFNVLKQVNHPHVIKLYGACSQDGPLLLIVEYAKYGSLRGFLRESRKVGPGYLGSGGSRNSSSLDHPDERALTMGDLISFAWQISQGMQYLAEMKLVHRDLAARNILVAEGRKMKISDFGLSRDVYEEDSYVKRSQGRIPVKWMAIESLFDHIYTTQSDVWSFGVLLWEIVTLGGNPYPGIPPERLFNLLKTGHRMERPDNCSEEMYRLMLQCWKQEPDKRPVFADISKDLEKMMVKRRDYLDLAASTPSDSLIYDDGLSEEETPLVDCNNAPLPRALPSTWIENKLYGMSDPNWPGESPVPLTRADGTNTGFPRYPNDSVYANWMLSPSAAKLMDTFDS

Flt3 = target: T3, Flt3 (Homo sapiens, UniProt P36888); assay: as above; format: biochemical
T3 construct: purchased invitrogen PV3182
T3 sequence (P36888 27-993): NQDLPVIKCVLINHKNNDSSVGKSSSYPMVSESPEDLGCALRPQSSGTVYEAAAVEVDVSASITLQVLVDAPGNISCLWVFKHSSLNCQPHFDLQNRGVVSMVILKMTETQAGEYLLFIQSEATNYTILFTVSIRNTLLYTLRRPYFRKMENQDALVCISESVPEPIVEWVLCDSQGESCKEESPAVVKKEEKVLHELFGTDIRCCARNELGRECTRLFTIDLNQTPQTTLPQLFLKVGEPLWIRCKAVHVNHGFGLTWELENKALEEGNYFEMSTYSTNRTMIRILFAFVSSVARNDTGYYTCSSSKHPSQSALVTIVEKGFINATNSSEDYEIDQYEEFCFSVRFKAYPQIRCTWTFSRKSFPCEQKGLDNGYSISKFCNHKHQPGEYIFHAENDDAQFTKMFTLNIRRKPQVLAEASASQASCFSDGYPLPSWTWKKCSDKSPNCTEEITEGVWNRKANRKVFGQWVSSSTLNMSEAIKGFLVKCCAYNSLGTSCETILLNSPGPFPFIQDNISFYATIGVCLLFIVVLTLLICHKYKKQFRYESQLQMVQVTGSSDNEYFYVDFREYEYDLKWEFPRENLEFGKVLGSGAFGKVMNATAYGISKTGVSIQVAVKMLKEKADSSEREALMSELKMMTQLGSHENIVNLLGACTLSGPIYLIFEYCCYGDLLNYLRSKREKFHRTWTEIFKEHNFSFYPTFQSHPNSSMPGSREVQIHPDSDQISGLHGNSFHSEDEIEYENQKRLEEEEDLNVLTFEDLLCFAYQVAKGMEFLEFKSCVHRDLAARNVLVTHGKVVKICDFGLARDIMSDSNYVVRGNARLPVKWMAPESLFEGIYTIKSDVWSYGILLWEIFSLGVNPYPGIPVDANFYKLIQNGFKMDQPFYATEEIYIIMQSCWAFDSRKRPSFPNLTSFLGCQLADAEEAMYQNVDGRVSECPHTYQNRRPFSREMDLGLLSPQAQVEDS

[4] = mean ± SD, 20 μM ATP, 25° C., 45 minutes

Which results are given for `Cc1c(/C=C2\C(=O)Nc3ccc(F)cc32)[nH]c2c1C(=O)N(C[C@H](O)CN1CCOCC1)CCC2` [Example 53, (R,Z)-2-(5-Fluoro-2-oxo-1,2-dihydro-indol-3-ylidenemethyl)-5-(2-hydroxy-3-morpholin-4-yl-propyl)-3-methyl-5,6,7,8-tetrahydro-1H-pyrrolo[3,2-c]azepin-4-one]?
IC50 [1]: 7800 ± 1500 nM; IC50 [2]: 2000 ± 500 nM; IC50 [3]: 8300 ± 300 nM; inhibition of kinase activity (in words) (Flt1; Flt1): obvious activity; IC50 (Flt1; [4]): 30.9 ± 5.7 nM; inhibition of kinase activity (in words) (Ret; Ret): obvious activity; IC50 (Ret; [4]): 182 ± 6.4 nM; inhibition of kinase activity (in words) (Flt3; Flt3): obvious activity; IC50 (Flt3; [4]): 19.3 ± 3.1 nM
